Series [1] has as its target T1, human CaV2.2 (α1B, β3, α2δ1) (Homo sapiens, UniProt Q00975).
T1 construct: expressed in transfected cells
Description: cell-based. More on the design: Emax: dose or concentration left out as unconfirmed.

The subject of the next series is Beagle dogs. The conditions noted are these: dog, in vivo.

Results on one compound are retold here after publication PMC5772529 (Scientific Reports, 2018).

Positions of bridges follow the written chain, without caps; N, C: chain ends. Residues, ends and D or L forms follow the SMILES beside them. A value given as a limit tells only on which side of the number the result lay.

T1 sequence (Q00975 whole entry, looked up): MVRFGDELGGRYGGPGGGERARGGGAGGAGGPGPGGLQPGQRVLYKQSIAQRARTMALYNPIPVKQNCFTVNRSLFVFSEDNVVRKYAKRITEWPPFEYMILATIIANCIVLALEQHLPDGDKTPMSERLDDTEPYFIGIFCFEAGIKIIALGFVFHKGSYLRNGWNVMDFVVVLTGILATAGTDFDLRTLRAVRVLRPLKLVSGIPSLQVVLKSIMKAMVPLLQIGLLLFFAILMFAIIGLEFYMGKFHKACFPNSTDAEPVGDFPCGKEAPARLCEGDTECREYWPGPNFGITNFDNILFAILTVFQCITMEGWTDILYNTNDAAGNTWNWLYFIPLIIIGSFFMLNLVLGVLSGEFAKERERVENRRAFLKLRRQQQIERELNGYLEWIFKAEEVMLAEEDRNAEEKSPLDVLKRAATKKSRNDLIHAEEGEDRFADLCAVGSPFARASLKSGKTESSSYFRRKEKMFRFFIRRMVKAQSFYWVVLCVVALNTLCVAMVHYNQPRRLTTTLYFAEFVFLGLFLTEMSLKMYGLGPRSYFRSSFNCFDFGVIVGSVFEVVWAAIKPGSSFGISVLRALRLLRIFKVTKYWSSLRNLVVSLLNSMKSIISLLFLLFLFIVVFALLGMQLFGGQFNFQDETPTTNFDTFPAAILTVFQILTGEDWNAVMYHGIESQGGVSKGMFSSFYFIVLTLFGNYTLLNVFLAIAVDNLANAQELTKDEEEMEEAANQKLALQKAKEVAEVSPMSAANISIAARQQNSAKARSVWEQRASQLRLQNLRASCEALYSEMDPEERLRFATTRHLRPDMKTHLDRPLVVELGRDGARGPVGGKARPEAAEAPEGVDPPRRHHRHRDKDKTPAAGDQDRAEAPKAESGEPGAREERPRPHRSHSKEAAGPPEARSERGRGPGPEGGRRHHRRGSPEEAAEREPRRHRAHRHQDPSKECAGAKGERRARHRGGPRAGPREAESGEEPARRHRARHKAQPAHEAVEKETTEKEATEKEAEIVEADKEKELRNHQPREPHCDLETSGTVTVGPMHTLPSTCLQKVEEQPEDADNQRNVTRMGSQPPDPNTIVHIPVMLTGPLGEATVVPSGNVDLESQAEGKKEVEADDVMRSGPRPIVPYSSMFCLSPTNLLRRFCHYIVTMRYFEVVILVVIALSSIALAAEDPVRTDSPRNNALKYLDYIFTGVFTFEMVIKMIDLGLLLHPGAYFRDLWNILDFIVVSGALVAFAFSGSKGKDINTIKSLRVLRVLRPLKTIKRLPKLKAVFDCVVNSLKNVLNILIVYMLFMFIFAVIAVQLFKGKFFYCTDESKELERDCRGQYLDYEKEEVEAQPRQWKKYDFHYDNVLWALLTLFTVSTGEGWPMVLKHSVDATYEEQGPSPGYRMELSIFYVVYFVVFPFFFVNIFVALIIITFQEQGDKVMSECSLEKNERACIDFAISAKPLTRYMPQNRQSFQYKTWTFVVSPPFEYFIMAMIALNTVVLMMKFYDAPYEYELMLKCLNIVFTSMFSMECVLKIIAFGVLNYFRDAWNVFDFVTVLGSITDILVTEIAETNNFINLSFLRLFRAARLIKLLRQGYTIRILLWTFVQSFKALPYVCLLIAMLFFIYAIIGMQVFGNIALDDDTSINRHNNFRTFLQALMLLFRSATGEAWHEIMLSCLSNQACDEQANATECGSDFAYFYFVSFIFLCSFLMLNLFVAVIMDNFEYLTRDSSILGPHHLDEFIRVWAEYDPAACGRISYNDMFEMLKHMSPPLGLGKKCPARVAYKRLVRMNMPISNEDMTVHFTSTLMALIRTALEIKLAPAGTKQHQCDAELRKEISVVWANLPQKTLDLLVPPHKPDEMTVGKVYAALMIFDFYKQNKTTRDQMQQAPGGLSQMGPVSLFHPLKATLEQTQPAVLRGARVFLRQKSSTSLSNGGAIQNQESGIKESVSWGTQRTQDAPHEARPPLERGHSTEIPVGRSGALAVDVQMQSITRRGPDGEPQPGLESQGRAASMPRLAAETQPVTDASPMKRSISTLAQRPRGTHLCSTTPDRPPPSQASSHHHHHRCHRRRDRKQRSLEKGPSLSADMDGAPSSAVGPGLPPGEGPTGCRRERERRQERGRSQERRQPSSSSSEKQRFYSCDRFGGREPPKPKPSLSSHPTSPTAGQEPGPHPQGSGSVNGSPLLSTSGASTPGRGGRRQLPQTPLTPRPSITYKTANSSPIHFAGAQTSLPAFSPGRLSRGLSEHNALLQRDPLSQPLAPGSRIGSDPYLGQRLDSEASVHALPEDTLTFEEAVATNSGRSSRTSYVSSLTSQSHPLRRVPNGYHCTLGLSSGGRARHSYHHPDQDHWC

With `CSCC[C@@H]1NC(=O)[C@@H]2CSSC[C@H](NC(=O)CN)C(=O)N[C@@H](CSSC[C@@H](C(N)=O)NC(=O)[C@H](CC(C)C)NC(=O)[C@H](CC(N)=O)NC(=O)[C@@H]3CCCN3C(=O)[C@H](CC(N)=O)NC(=O)[C@H](CCCCN)NC(=O)[C@H](CC(C)C)NC1=O)C(=O)N[C@@H](CO)C(=O)N[C@@H](CC(N)=O)C(=O)N1CCC[C@H]1C(=O)N[C@@H](C)C(=O)N2` [Eu1.6] (H-GCCSNPACMLKNPNLC-NH2; disulfide 2-8, 3-16), in series [1], inhibition was half-maximal at 1.1 nM (IC50), the “maximum block of CaV2.2” value is less than 50% and the “reduction of peak current density” value is greater than 40%. Further, the inhibition at 1 µM in series [1] (HEK293, read-out: inhibition of depolarization-activated Ba2+ current amplitude) was greater than 30%. Besides, the Emax in series [1] (HEK293, read-out: maximal effect (partial inhibitor)) is 40%. Moreover, in the series on Beagle dogs, the “physiological impairments of baseline parameters (locomotion, cardiac and respiratory function)” value is given as “no physiological impairments”.

The term IC50 denotes the concentration at which inhibition is half-maximal. In general, inhibition refers to the relative decrease from the control value, in per cent.
